Measured values reported in patent US9492470B2, “Use of HMGA-targeted phosphorothioate DNA aptamers to suppress carcinogenic activity and increase sensitivity to chemotherapy agents in human cancer cells” (MIAMI UNIVERSITY, priority 2012, dated 2016).
Read-outs that look alike come from different tables or passages of the source. In the oligonucleotide strings, read from the 5' end, every base follows the letter of its sugar. An asterisk marks phosphorothioate; unmarked linkages are phosphodiester. Other units and linkages are bracketed, terminal groups are in braces. A string of capitals states the bases alone. d = 2'-deoxy (DNA)

Experiments:
[1] = system: AsPC-1 cells; test: Cell growth with gemcitabine treatment after sDNA transfection, AsPC-1; type: cell-based, Human; settings: for Fold change in numbers of viable cells, TC cells with gemcitabine: AsPC-1, TC (no sDNA); for Fold change in numbers of viable cells, TC cells with gemcitabine / Fold change in numbers of viable cells normalized relative to TC: 96 hours; for Fold change in numbers of viable cells normalized relative to TC: AsPC-1, 0.25 ug sDNA
[2] = system: Miapaca-2 cells; test: Cell growth with gemcitabine treatment after sDNA transfection, Miapaca-2; type: cell-based, Human; settings: for IC50: Homo sapiens, MIA PaCa-2, 96 h
[3] = system: Miapaca-2 cells; test: as above; type: cell-based, Human; settings: 96 hours; for Fold change in numbers of viable cells normalized relative to TC: Miapaca-2, 0.1 ug sDNA
Method: (§1) Cells were fixed after 96 hours and numbers of viable cells counted by measuring the absorbance at 570 nm.
(§2) Cells were transfected with 0.1 μg of TC-sDNA, Mix-sDNA, CG-sDNA, and AT-sDNA.

[4] = system: HMGA1 expression levels in AsPC-1 cells; test: Western blot of HMGA1 expression levels in AsPC-1 nuclear extracts; type: cell-based, Human; settings: 48 hours
Method: Cytoplasmic and nuclear protein extracts were prepared from pancreatic cancer cells using NE-PER extraction kit (Thermo Scientific, Rockford, Ill.). Protein concentrations were determined using a bicinchoninic acid assay with bovine serum albumin as a standard. Nuclear proteins that contained 25 or 15 μg total protein were separated by SDS-PAGE with a 4%-20% Criterion gradient gel (Bio-Rad Laboratories, Inc., Hercules, Calif.). The proteins were transferred to immuno-blot PVDF membrane (0.2 μm) (Bio-Rad Laboratories, Inc., Hercules, Calif.) and blocked in 5% dry milk in PBS supplemented with 0.2% Tween 20 (PBST). The PVDF membranes were then probed with 1:1000 dilution of rabbit anti-HMGA1 antibody (Santa Cruz Biotechnology Inc, Santa Cruz, Calif.) and 1:100 dilution of rabbit anti-HMGA2 antibody (Abcam plc, Cambridge, Mass.), in 3% BSA in PBST at 4° C. overnight. After three washes with PBST, the membrane was blotted with secondary antibody, ant-rabbit IgG-HRP (cell signaling) 1:5000 dilution in 1% dry milk in PBST at room temperature for 1 hour. An enhanced chemiluminescence detection (ECL, GE Healthcare Life Sciences, Piscataway, N.J.) system was used to detect target proteins. To ensure equal loading of the proteins between groups, membranes were re-probed with anti-TATA binding protein antibody (Abcam plc, Cambridge, Mass.). […] The control was nuclear extract from untreated cells. Triplicates of each sample were run on the gel and analyzed with the Alpha Imager. The relative HMGA1 densities were obtained by dividing HMGA 1 density by TBP density. […] TATA binding protein (TBP) was used as a loading control. […] HMGA1 expression levels were examined after transfection with CG-sDNA or AT-sDNA to determine if the transfection procedure affected HMGA1 expression levels. The AT-sDNA used for transfection contained an 18 adenine/thymine stretch enabling HMGA1 to bind the DNA with all three AT-hooks. As a negative control, a non-HMGA1-targeted sDNA containing an equal length of DNA but with no AT-stretches, i.e. CG-sDNA, was used. […]

[5] = system: AsPC-1 cells; test: Cell growth with gemcitabine treatment after sDNA transfection, AsPC-1; type: cell-based, Human; settings: for Fold change in numbers of viable cells normalized relative to TC: AsPC-1, 0.1 ug sDNA
Method: as §1, §2

[6] = system: AsPC-1 cells; settings: for cell death: 96 h, compared to non-transfected cells; for cells dead compared to UT: versus untransfected (UT) cells; for Fold change in numbers of viable cells between TC and sDNA transfected cells (in parentheses) / Fold change in numbers of viable cells between UT and transfected cells: 96 h after transfection
Method: AsPC-1 cells were grown in Roswell Park Memorial Institute medium supplemented with 10% FBS, and 1% penicillin-streptomycin.
Transfections using sDNA at concentrations of 0.1 and 0.25 μg per well were conducted with 5×10^4 and 1×10^5 Miapaca-2 and AsPC-1 cells, respectively, in 24-well plates and all data were collected in quadruplicate. Miapaca-2 and AsPC-1 cells were transfected with sDNA using Lipofectamine 2000 (Invitrogen,™ Life Technologies Corporation, Carlsbad, Calif.) according to the manufacturer's protocol.
Briefly, AsPC-1 cells grown in 10% FBS containing RPIM medium were trypsinized using a trypsin-EDTA solution commercially available from the Sigma-Aldrich, and used to seed fresh media in a 24-well plate with 10^5 cells per well.
After 48 hours, the cells were transfected with the selected sDNA using Lipofectamine 2000 (Invitrogen,™ Life Technologies Corporation, Carlsbad, Calif.) according to the manufacturer's protocol. […] The cells were then fixed with 4% paraformaldehyde in PBS for 20 minutes and stained in 0.1% crystal violet stain (Sigma-Aldrich) for 30 minutes. The cells were washed under running tap water, air dried, and extracted with 0.2% Triton™ X-100 for 30 minutes. […] The absorbance of the Triton X-100 was measured at 570 nm using a HTS microplate reader. All results were analyzed for statistical significance using a student's unpaired t-test.

[7] = system: Miapaca-2 cells; test: Cell viability (crystal violet) after sDNA transfection, Miapaca-2; type: cell-based, Human; settings: for cells dead compared to UT: versus untransfected (UT) cells; for Fold change in numbers of viable cells between TC and sDNA transfected cells (in parentheses) / Fold change in numbers of viable cells between UT and transfected cells: 96 h after transfection
Method: The absorbance was measured at 570 nm in quadruplicate. All data from control cells were combined and averaged.

## Nc1ccn([C@@H]2O[C@H](CO)[C@@H](O)C2(F)F)c(=O)n1 [Gemcitabine, gemcitabine]
[1]; Gemcitabine 10 nM
  Fold change in numbers of viable cells, TC cells with gemcitabine: −1.02 fold
[1]; Gemcitabine 100 nM
  Fold change in numbers of viable cells, TC cells with gemcitabine: −1.36 fold
[1]; Gemcitabine 1000 nM
  Fold change in numbers of viable cells, TC cells with gemcitabine: −1.52 fold
[1]; Homo sapiens, ASPC1, 96 h, read-out: Gemcitabine IC50 in transfection control (TC) cells, AsPC-1, TC (no sDNA), 0.25 μg column, 96 hours
  IC50: 0.0248 µM
[2]; read-out: Gemcitabine IC50 in transfection control (TC) cells, Miapaca-2, TC (no sDNA), 0.1 μg column, 96 hours
  IC50: 0.0119 ± 0.0012 µM
[2]; read-out: Gemcitabine IC50 in transfection control (TC) cells, Miapaca-2, TC (no sDNA), 0.25 μg column, 96 hours
  IC50: 0.0215 ± 0.0006 µM
[2]; Miapaca-2, TC (no sDNA), 1 nM gemcitabine, 96 hours
  change in cell viability, TC cells: no significant change
[2]; Miapaca-2, TC (no sDNA), 10 nM gemcitabine, 96 hours
  cells surviving, TC cells: 77.1%
[2]; Miapaca-2, TC (no sDNA), Gemcitabine 1 nM, 96 hours
  Fold change in numbers of viable cells, TC cells with gemcitabine: 1.00 fold
[2]; Miapaca-2, TC (no sDNA), Gemcitabine 10 nM, 96 hours
  Fold change in numbers of viable cells, TC cells with gemcitabine: −1.30 fold
[2]; Miapaca-2, TC (no sDNA), Gemcitabine 100 nM, 96 hours
  Fold change in numbers of viable cells, TC cells with gemcitabine: −3.59 fold
[2]; Miapaca-2, TC (no sDNA), Gemcitabine 1000 nM, 96 hours
  Fold change in numbers of viable cells, TC cells with gemcitabine: −3.47 fold
[3]; Miapaca-2, TC (no sDNA), Gemcitabine 30 nM
  Fold change in numbers of viable cells, TC cells with gemcitabine: −3.21 fold
[4]; AsPC-1, 100 nM gemcitabine
  change in HMGA1 expression levels after gemcitabine: no change
[5]; AsPC-1, TC (no sDNA), Gemcitabine 30 nM, 96 hours
  Fold change in numbers of viable cells, TC cells with gemcitabine: −1.04 fold
[5]; Homo sapiens, ASPC1, 96 h, read-out: Gemcitabine IC50 in transfection control (TC) cells, AsPC-1, TC (no sDNA), 0.1 μg column, 96 hours
  IC50: 0.028 µM

## CG-sDNA: CG-rich phosphorothioate DNA (SEQ ID NO: 12), negative control with no AT-stretches (DNA dC*dC*dC*dC*dG*dG*dG*dC*dC*dC*dC*dG*dG*dC*dC*dG*dG*dG*dC*dG*dC*dC*dG*dC)
[1]; Gemcitabine 0 nM
  Fold change in numbers of viable cells normalized relative to TC: −1.10 fold
[1]; Gemcitabine 1 nM
  Fold change in numbers of viable cells normalized relative to TC: −1.10 fold
[1]; Gemcitabine 10 nM
  Fold change in numbers of viable cells normalized relative to TC: −1.21 fold
[1]; Gemcitabine 30 nM
  Fold change in numbers of viable cells normalized relative to TC: −1.69 fold
[1]; Gemcitabine 100 nM
  Fold change in numbers of viable cells normalized relative to TC: −1.36 fold
[1]; Gemcitabine 1000 nM
  Fold change in numbers of viable cells normalized relative to TC: −2.16 fold
[2]; Miapaca-2, 0.1 ug sDNA, Gemcitabine 1 nM, 96 hours
  Fold change in numbers of viable cells normalized relative to TC: 1.12 fold
[2]; Miapaca-2, 0.25 ug sDNA, Gemcitabine 0 nM, 96 hours
  Fold change in numbers of viable cells normalized relative to TC: −1.30 fold
[2]; Miapaca-2, 0.25 ug sDNA, Gemcitabine 1 nM, 96 hours
  Fold change in numbers of viable cells normalized relative to TC: −1.38 fold
[2]; Miapaca-2, 0.25 ug sDNA, Gemcitabine 10 nM, 96 hours
  Fold change in numbers of viable cells normalized relative to TC: −1.37 fold
[2]; Miapaca-2, 0.25 ug sDNA, Gemcitabine 30 nM, 96 hours
  Fold change in numbers of viable cells normalized relative to TC: −2.97 fold
[2]; Miapaca-2, 0.25 ug sDNA, Gemcitabine 100 nM, 96 hours
  Fold change in numbers of viable cells normalized relative to TC: −5.48 fold
[2]; Miapaca-2, 0.25 ug sDNA, Gemcitabine 1000 nM, 96 hours
  Fold change in numbers of viable cells normalized relative to TC: −4.11 fold
[3]; Miapaca-2, 0.1 μg sDNA, 1 nM gemcitabine
  cells dead / change in cell viability: no significant change
[3]; Miapaca-2, 0.1 μg sDNA, 10 nM gemcitabine, normalized to 0 nM gemcitabine
  cells surviving: 83.9%
[3]; Gemcitabine 0 nM
  Fold change in numbers of viable cells normalized relative to TC: 1.09 fold
[3]; Gemcitabine 10 nM
  Fold change in numbers of viable cells normalized relative to TC: −1.09 fold
[3]; Gemcitabine 30 nM
  Fold change in numbers of viable cells normalized relative to TC: −3.29 fold
[3]; Gemcitabine 100 nM
  Fold change in numbers of viable cells normalized relative to TC: −4.06 fold
[3]; Gemcitabine 1000 nM
  Fold change in numbers of viable cells normalized relative to TC: −4.24 fold
[6]; AsPC-1, 0.1 μg sDNA per well
  cell death: 12%
[6]; AsPC-1, 0.1 ug sDNA, 48 hrs
  cells dead compared to UT: 33.8%
[6]; AsPC-1, 0.1 μg sDNA
  Fold change in numbers of viable cells between TC and sDNA transfected cells (in parentheses): (−1.11) fold
  Fold change in numbers of viable cells between UT and transfected cells: −1.20 fold
[6]; AsPC-1, 0.1 μg sDNA, 96 hrs, versus transfection control (TC) cells
  cells dead compared to TC: 9.7%
[6]; AsPC-1, 0.1 ug sDNA, 96 hrs
  cells dead compared to UT: 14.3%
[6]; AsPC-1, 0.1 ug sDNA, both 48 and 96 hours
  difference in cell viability between TC cells and sDNA transfected cells: no significant differences
[6]; AsPC-1, 0.25 μg sDNA per well
  cell death: 16%
[6]; AsPC-1, 0.25 μg sDNA
  Fold change in numbers of viable cells between TC and sDNA transfected cells (in parentheses): (−1.10) fold
  Fold change in numbers of viable cells between UT and transfected cells: −1.19 fold
[6]; AsPC-1, 0.25 μg sDNA, 96 hours, versus TC cells
  cell death compared to TC: 9.0%
[6]; AsPC-1, 1.0 μg sDNA per well
  cell death: 60%
[6]; AsPC-1, 1.0 μg sDNA, 96 hours, versus TC cells
  cells dead compared to TC: 56.4%
[4]; AsPC-1, 0.5 μg sDNA in six well plates
  change in HMGA1 expression levels after sDNA transfection: no changes
[7]; Miapaca-2, 0.1 ug sDNA, 48 hrs
  cells dead compared to UT: 36.3%
[7]; Miapaca-2, 0.1 μg sDNA
  Fold change in numbers of viable cells between TC and sDNA transfected cells (in parentheses): (1.09) fold
  Fold change in numbers of viable cells between UT and transfected cells: −1.43 fold
[7]; Miapaca-2, 0.1 ug sDNA, 96 hrs
  cells dead compared to UT: 32.0%
[7]; Miapaca-2, 0.1 ug sDNA, both 48 and 96 hours
  difference in cell viability between TC cells and sDNA transfected cells: no significant differences
[7]; Miapaca-2, 0.25 μg sDNA
  Fold change in numbers of viable cells between TC and sDNA transfected cells (in parentheses): (−1.30) fold
  Fold change in numbers of viable cells between UT and transfected cells: −2.15 fold
[5]; Gemcitabine 0 nM, 96 hours
  Fold change in numbers of viable cells normalized relative to TC: −1.11 fold
[5]; Gemcitabine 1 nM, 96 hours
  Fold change in numbers of viable cells normalized relative to TC: −1.09 fold
[5]; Gemcitabine 10 nM, 96 hours
  Fold change in numbers of viable cells normalized relative to TC: −1.18 fold
[5]; Gemcitabine 30 nM, 96 hours
  Fold change in numbers of viable cells normalized relative to TC: −1.34 fold
[5]; Gemcitabine 100 nM, 96 hours
  Fold change in numbers of viable cells normalized relative to TC: −1.52 fold
[5]; Gemcitabine 1000 nM, 96 hours
  Fold change in numbers of viable cells normalized relative to TC: −1.67 fold
